Measurements reported in publication PMC8188212, “Multi‐Arm PEG/Peptidomimetic Conjugate Inhibitors of DR6/APP Interaction Block Hematogenous Tumor Cell Extravasation” (Advanced Science, 2021).
Square brackets hold non-standard residues; d marks the D form. Side chains are listed from the residue outwards. Ends that are not written are not given here. Peptide text beside a SMILES is read from it. * marks the point of attachment. maleimide = maleimide: 4-arm PEG5k maleimide reacting with the C-terminal Cys thiol; Cbz = O=C(OCc1ccccc1)*; CH2F = FC*

T1: DR6 protein (Homo sapiens, UniProt O75509)
T1 construct: purchased Sino Biology, Inc. (Shanghai, China)
T1 sequence (O75509 42-655): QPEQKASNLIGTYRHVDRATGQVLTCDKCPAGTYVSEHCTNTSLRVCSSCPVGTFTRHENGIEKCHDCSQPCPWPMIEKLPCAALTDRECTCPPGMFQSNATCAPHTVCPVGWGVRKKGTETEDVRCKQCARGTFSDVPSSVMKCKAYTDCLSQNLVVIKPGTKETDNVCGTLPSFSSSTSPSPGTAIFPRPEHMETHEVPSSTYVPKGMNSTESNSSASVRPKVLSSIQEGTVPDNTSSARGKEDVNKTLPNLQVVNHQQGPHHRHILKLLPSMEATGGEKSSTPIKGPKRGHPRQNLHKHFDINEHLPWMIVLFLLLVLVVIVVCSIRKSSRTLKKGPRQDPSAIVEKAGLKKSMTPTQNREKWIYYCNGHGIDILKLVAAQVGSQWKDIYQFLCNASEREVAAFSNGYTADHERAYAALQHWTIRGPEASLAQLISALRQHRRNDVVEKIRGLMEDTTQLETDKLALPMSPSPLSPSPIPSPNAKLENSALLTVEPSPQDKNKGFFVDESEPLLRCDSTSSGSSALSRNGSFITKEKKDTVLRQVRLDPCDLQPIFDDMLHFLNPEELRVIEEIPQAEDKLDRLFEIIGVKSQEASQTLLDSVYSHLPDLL

T2: death receptor 6 (DR6) protein (UniProt O75509 42-349, labelled with RED-tris-NTA second-generation dye)
T2 construct: death receptor 6 (DR6), bought recombinant protein; It is probably a soluble extracellular construct, but that is a surmise; source: bought: Sino Biology
T2 sequence (looked up): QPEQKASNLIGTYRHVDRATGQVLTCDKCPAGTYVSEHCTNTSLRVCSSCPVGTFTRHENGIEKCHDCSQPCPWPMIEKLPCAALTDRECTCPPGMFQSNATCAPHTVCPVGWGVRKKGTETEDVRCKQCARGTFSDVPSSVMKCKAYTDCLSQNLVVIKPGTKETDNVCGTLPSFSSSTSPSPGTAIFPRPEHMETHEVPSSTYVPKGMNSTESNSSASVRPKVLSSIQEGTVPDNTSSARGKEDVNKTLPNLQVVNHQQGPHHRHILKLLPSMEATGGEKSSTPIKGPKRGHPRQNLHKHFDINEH

T3: death receptor 6 (DR6) protein (UniProt O75509 42-349, labelled with RED-tris-NTA second-generation dye)
T3 construct: death receptor 6 (DR6), bought recombinant protein; source: bought: Sino Biology, Inc. (Shanghai, China)
T3 sequence (looked up): T2 sequence (looked up)

B1: AHP‐DRI‐12 (D‐retro‐inverso isomer of AHP‐12) (peptide)
peptide: [dP][dT][dT][dA][dD][dI][dT]
notes: Peptidomimetic made of D-amino acids; source: synthetic peptide (SPPS, HPLC purified)
B2: AHP‐12 (peptide)
peptide: TIDATTP
notes: heptapeptide selected from a random heptapeptide M13 phage display library against DR6; also called AHP-12 (TIDATTP); source: synthetic peptide (SPPS, HPLC purified)
B3: PEG‐tAHP‐DRI (tetra‐(D‐retro‐inverso isomer of AHP‐12) substitued 4‐arm PEG5k) (other)
peptide: [dP][dT][dT][dA][dD][dI][dT]C([maleimide-4‑arm PEG5k])
modifications: also: four peptides on one 4-arm PEG5k
notes: additional Cys residue at the C-terminal, coupled to the maleimide of the PEG arm; Four peptide chains on one 4-arm PEG5k, not a polypeptide oligomer; also called PEG‐tAHP‐12; PEGylated tetrameric AHP‐DRI‐12; source: synthetic peptide conjugated to 4-arm PEG5k maleimide, dialysed
B4: AHP-03 (peptide)
peptide: YLPAPLP
notes: heptapeptide selected from a random phage display library against DR6; source: synthetic peptide (SPPS)
B5: AHP-10 (peptide)
peptide: NGSTHER
notes: as for B4
B6: AHP-24 (peptide)
peptide: NHQRLLP
notes: as for B4
B7: AHP-01 (peptide)
peptide: WTLSINS
notes: as for B4
B8: AHP-23 (peptide)
peptide: GGLSMTR
notes: as for B4
B9: AHP-05 (peptide)
peptide: YYSGNNL
notes: as for B4
B10: AHP-13 (peptide)
peptide: SHTDTNQ
notes: as for B4

target: T1, DR6 protein; assay: KD of DR6-targeting peptides for binding to DR6 protein by MST; details: Tables S1 and S2, average of three independent experiments in triplicate, NB = No binding, read-out: KD ± SEM
Method: For labeling DR6 protein with Red‐tris‐NTA second‐generation dye, equal volume of DR6 protein (200 × 10^–9 M) and dye (100 × 10^–9 M) were mixed. The solution was incubated for 30 min at room temperature and centrifuged for 10 min at 4 ℃ and 15 000 × g. The DR6 protein was labeled and ready for the binding assay. Prepare 25 µL of the DR6‐targeting peptides at 20 × 10^–6 M and add 10 µL of the PBS‐T into the PCR tubes 2–12. Transfer 20 µL DR6‐targeting peptides into the PCR tube 1 and then transfer 10 µL of the DR6‐targeting peptides from tube 1 to tube 2 with a pipette and mix by pipetting up and down multiple times. Transfer 10 µL to tube 3 and mix. Repeat the procedure for tube 4–12. Add 10 µL of labeled protein to each tube (1–12) and mix by pipetting. The final DR6 protein concentration was 50× 10^−9 M. Load the capillaries and measure the samples by NanoTemper Monolith NT.015.^[ ^51 , ^52 ^]

Molecule	Kd
CC(C)C[C@@H](NC(=O)[C@H]1CCCN1C(=O)[C@@H](C)NC(=O)[C@H]1CCCN1C(=O)[C@@H](CC(C)C)NC(=O)[C@H](N)Cc1ccc(O)cc1)C(=O)N1CCC[C@@H]1C(=O)O [AHP-D-03] (H-[dY][dL][dP][dA][dP][dL][dP]-OH)	4734 ± 8.8 nM
CC[C@@H](C)[C@@H](NC(=O)[C@H](N)[C@H](C)O)C(=O)N[C@H](CC(=O)O)C(=O)N[C@H](C)C(=O)N[C@@H](C(=O)N[C@@H](C(=O)N1CCC[C@@H]1C(=O)O)[C@H](C)O)[C@H](C)O [AHP-D-12] (H-[dT][dI][dD][dA][dT][dT][dP]-OH)	55100 ± 27600 nM
C[C@H](O)[C@@H](NC(=O)[C@@H](CC(=O)O)NC(=O)[C@H](NC(=O)[C@@H](Cc1c[nH]cn1)NC(=O)[C@H](N)CO)[C@H](C)O)C(=O)N[C@H](CC(N)=O)C(=O)N[C@H](CCC(N)=O)C(=O)O [AHP-D-13] (H-[dS][dH][dT][dD][dT][dN][dQ]-OH)	3174 ± 8.8 nM
CC(C)C[C@@H](NC(=O)[C@H]1CCCN1C(=O)[C@@H](C)NC(=O)[C@H]1CCCN1C(=O)[C@@H](CC(C)C)NC(=O)[C@H]1CCCN1)C(=O)N[C@H](Cc1ccc(O)cc1)C(=O)O [AHP-DRI-03] (H-[dP][dL][dP][dA][dP][dL][dY]-OH)	1219 ± 7.02 nM
C[C@H](O)[C@@H](NC(=O)[C@@H](CC(=O)O)NC(=O)[C@H](NC(=O)[C@@H](CC(N)=O)NC(=O)[C@H](N)CCC(N)=O)[C@H](C)O)C(=O)N[C@H](Cc1c[nH]cn1)C(=O)N[C@H](CO)C(=O)O [AHP-DRI-13] (H-[dQ][dN][dT][dD][dT][dH][dS]-OH)	862.7 ± 6.59 nM
AFMYSLP [AHP-14]	457 ± 11.6 nM
AGHFSLW [AHP-21]	> 10000 nM
ANLLYES [AHP-04]	> 10000 nM
FQFRLQS [AHP-02]	> 10000 nM
GFSHYFP [AHP-11]	> 10000 nM
HSTAPQL [AHP-08]	> 10000 nM
HSYPYTQ [AHP-17]	> 10000 nM
KFLQVTN [AHP-16]	> 10000 nM
KLGPVCP [AHP-06]	> 10000 nM
KLVPEPS [AHP-09]	> 10000 nM
LMTTKSD [AHP-22]	> 10000 nM
LPRSPLA [AHP-20]	> 10000 nM
MPPFRHD [AHP-19]	> 10000 nM
TIPKYER [AHP-15]	> 10000 nM
TTYMPKM [AHP-18]	> 10000 nM
YSLHASP [AHP-07]	> 10000 nM

system: TCs over HUVECs monolayer; assay: Transendothelial migration of TCs over HUVEC monolayer; type: cell-based, human; details: AHP-DRI-12 and PEG-tAHP-DRI 1 × 10^−6 M (AHP-DRI-12), Nec-1 30 × 10^–6 M, zVAD 100 × 10^–6 M; 48 h; compared with control; n = 3
Method: HUVECs (1 × 10^5) in DMEM were added into 24‐well plate transwell upper chambers and the medium was changed every 2 days. Using the EVOM resistance tester, the transendothelial resistance was measured daily. When the TEER resistance value was >200 Ωcm^2, the cells grew into a monolayer of tight connection. 2 × 10^5 GFP‐TCs were added into upper chambers. One milliliter DMEM containing 10% FBS was added into lower chambers overnight. AHP‐DRI‐12 and PEG‐tAHP‐DRI (1 ×10^–6 M AHP‐DRI‐12), Nec‐1 (30 × 10^–6 M), and zVAD (100 × 10^–6 M) were added in upper chambers, respectively. After incubation for 48 h, cells in lower chambers were observed by fluorescence microscope.^[ ^56 ^]

Molecule	TCs transendothelial migration
COC(=O)C[C@H](NC(=O)[C@H](C)NC(=O)[C@@H](NC(=O)OCc1ccccc1)C(C)C)C(=O)CF [zVAD, z‐VAD‐fmk, reference compound] (Cbz-Val-Ala-Asp(OMe)-CH2F)	increased number of migrated TCs

system: not listed separately; assay: Pharmacokinetic study after intravenous injection; type: in vivo; details: SD rats, FITC-labeled, blood samples 0.5-72 h, microplate reader, n = 3
Method: To investigate the pharmacokinetic profile of AHP‐DRI‐12 and PEG‐tAHP‐DRI, SD rats were intravenously injected with FITC‐labeled AHP‐DRI‐12 and PEG‐tAHP‐DRI and blood samples were collected at 0.5, 1, 2, 4, 6, 24, 30, 48, 54, and 72 h. The DR6‐targeting peptide level of blood samples was measured by a microplate reader.

Molecule	half-life (T1/2)
CC[C@@H](C)[C@@H](NC(=O)[C@@H](CC(=O)O)NC(=O)[C@@H](C)NC(=O)[C@H](NC(=O)[C@H](NC(=O)[C@H]1CCCN1)[C@H](C)O)[C@H](C)O)C(=O)N[C@@H](C(=O)O)[C@H](C)O [AHP-DRI-12] (H-[dP][dT][dT][dA][dD][dI][dT]-OH)	7.8 h

system: HUVECs; assay: Apoptosis analysis, annexin V-FITC/PI flow cytometry; type: cell-based, human; details: 24 h, rhTRAIL 100 ng mL^–1 as positive control
Method: To evaluate the number of apoptotic cells after treatment of AHP‐DRI‐12 and PEG‐tAHP‐DRI, 5 × 10^5 HUVECs were seeded in six‐well plates and treated with rhTRAIL (100 ng mL^–1, Peprotech) or AHP‐DRI‐12 and PEG‐tAHP‐DRI (0.1 × 10^–6, 1.0 × 10^–6, 10 × 10^–6 M AHP‐DRI‐12). After incubating for 24 h, HUVECs were harvested and resuspended in 100 µL binding buffer, and then stained with FITC‐labeled annexin V and propidium iodide (PI) (BD Biosciences) according to the manufacturer's instructions. The apoptotic number of HUVECs was measured by flow cytometry.

Molecule	HUVECs undergoing apoptosis
TRAIL	30%

target: hERG potassium channel (Homo sapiens, UniProt Q12809); assay: Whole-cell patch clamp recording of hERG current; type: cell-based; details: cisapride as positive control
Sequence (Q12809 whole entry): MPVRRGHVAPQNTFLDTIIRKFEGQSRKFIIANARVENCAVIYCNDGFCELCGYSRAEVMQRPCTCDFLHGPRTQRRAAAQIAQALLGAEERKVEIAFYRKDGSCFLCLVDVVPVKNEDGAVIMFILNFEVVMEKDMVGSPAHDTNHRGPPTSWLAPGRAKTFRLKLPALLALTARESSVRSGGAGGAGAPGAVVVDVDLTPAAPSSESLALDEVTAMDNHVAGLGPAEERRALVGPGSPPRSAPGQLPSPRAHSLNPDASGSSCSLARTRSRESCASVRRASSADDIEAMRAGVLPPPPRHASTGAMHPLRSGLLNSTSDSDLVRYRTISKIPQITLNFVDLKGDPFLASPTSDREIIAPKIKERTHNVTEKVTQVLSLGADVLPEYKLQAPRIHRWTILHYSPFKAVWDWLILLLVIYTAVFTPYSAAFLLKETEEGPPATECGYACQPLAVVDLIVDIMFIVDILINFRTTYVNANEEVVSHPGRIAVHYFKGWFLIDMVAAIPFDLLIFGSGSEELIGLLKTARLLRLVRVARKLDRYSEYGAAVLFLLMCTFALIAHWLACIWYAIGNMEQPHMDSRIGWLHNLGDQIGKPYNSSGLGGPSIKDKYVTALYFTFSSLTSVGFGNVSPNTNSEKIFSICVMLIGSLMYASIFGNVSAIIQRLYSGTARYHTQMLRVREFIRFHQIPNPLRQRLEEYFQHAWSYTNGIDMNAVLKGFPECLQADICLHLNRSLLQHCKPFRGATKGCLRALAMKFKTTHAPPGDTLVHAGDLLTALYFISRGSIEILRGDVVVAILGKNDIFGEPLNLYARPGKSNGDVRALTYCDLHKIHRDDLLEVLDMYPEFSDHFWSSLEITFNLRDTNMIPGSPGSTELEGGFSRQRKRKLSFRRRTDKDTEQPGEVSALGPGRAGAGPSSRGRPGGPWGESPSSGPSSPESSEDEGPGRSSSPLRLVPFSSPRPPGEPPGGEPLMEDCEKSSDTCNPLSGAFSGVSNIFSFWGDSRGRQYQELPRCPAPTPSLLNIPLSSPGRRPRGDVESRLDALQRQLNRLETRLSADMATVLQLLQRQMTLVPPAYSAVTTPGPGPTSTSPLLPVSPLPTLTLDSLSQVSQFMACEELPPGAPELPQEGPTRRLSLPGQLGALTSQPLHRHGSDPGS
Method: In addition, some common adverse effects suffered by frequently used medications were also evaluated. The whole‐cell patch clamp recording technique was used to record the whole‐cell hERG‐potassium to measure the cardiac toxicity of peptidomimetic agents on hERG potassium channel by utilizing cisapride as positive control (Figure 6E; Figure S10, Supporting Information). […] Meanwhile, the blood biochemical indexes of ligand‐treated mice sacrificed on day 2 or day 15 were tested to examine the influences of peptidomimetic agents to liver and kidney (Figure S11, Supporting Information).

Molecule	inhibitory effect on hERG channels
CC[C@@H](C)[C@@H](NC(=O)[C@@H](CC(=O)O)NC(=O)[C@@H](C)NC(=O)[C@H](NC(=O)[C@H](NC(=O)[C@H]1CCCN1)[C@H](C)O)[C@H](C)O)C(=O)N[C@@H](C(=O)O)[C@H](C)O [AHP-DRI-12] (H-[dP][dT][dT][dA][dD][dI][dT]-OH)	no significant inhibitory effect

system: not listed separately; assay: In vivo safety analysis in healthy mice; set-up: species or system C57BL/6 mice; details: healthy mice, intravenous, 0.2 µg g^–1 AHP-DRI-12; sacrificed day 2 or day 15
Method: For evaluating the toxicity of peptides in vivo, 6 week old healthy mice were intravenously injected with AHP‐DRI‐12 and PEG‐tAHP‐DRI (0.2 µg g^–1 AHP‐DRI‐12). After 2 and 15 days, mice were sacrificed and serum samples were collected for the biochemical analysis (ALT, AST, BRU, and URE). Tissue samples from various organs were collected for tissue sections. The tissue sections were analyzed by H&E staining and immunohistochemistry analysis.

Molecule	damage to liver or kidney, blood biochemical indexes (ALT, AST, BRU, URE)
CC[C@@H](C)[C@@H](NC(=O)[C@@H](CC(=O)O)NC(=O)[C@@H](C)NC(=O)[C@H](NC(=O)[C@H](NC(=O)[C@H]1CCCN1)[C@H](C)O)[C@H](C)O)C(=O)N[C@@H](C(=O)O)[C@H](C)O [AHP-DRI-12] (H-[dP][dT][dT][dA][dD][dI][dT]-OH)	could not cause any damage to liver or kidney

target: T2, death receptor 6 (DR6) protein; assay: MST; DR6 protein labelled with RED-tris-NTA second-generation dye, final 50 × 10^-9 M; peptides prepared at 20 × 10^-6 M and diluted serially 1:1 over 12 tubes in PBS-T; NanoTemper Monolith NT.015; details: both partners purified

Molecule	Kd
B1	225 nM
B2	322 nM
B3	51.1 nM

target: T3, death receptor 6 (DR6) protein; assay: MST; DR6 protein labelled with RED-tris-NTA second-generation dye, final 50 x 10^-9 M; peptide prepared at 20 x 10^-6 M, diluted serially 1:1 in PBS-T over 12 tubes and mixed with an equal volume of labelled DR6; NanoTemper Monolith NT.015; details: both partners purified

Molecule	Kd
B4	688 nM
B5	528 nM
B6	1090 nM
B7	1150 nM
B8	4460 nM
B9	1100 nM
B10	1150 nM

target: T3, death receptor 6 (DR6) protein; assay: as above; details: both partners purified; remark: another data set of the same source

Molecule	Kd
B10	457 ± 11.6 nM
